The values that follow come from patent US11220523B2, “Carbohydrate ligands that bind to IgM antibodies against myelin-associated glycoprotein” (UNIVERSITÄT BASEL, priority 2014, dated 2022).

For this test, the target named is anti-MAG IgM antibodies. The test is described as follows: Competitive binding assay (modified anti-MAG ELISA): compounds compete with immobilized MAG for anti-MAG IgM antibodies of patient sera. Details: species or system human. The procedure:
FIG. 1. Schematic representation of a competitive binding assay • (a) Incubation of MAG-coated plates with anti-MAG IgM (patient sera) and polymer 25. (b) Wash step. (c) Incubation with anti-human IgM antibody coupled to horseradish peroxidase. (d) Wash step. (e) Addition of tetramethylbenzidin (TMB) substrate. (f) Addition of acidic stop solution and measurement of the optical density.
The synthesized carbohydrate monomers (1 and 2) and the polymer 25 were tested in an established ELISA assay (Bühlmann Laboratories, Schonenbuch, Switzerland) applied for the diagnosis of anti-MAG neuropathy and for therapy control in clinic. The assay is used to determine serum concentration of anti-MAG IgM autoantibodies. The assay was modified to a competitive binding assay. The synthesized compounds and serum samples containing anti-MAG IgM antibodies are given into 96 well plates, coated with purified MAG from human brain. Immobilized MAG and the synthesized compounds compete for binding to the anti-MAG IgM antibodies. After a washing step MAG-bound IgM antibodies are detected with a horseradish peroxidase labeled antibody, followed by a colorimetric reaction. Successful competition of the compounds with MAG leads to a decrease in measured OD450 nm (optical density), because they block the binding sites of IgM antibodies, preventing them from binding to MAG. The principle of the assay is depicted in FIG. 1. For the evaluation of the compounds, four sera from different patients ([…]) with reported high anti-MAG IgM antibody titers were chosen. IgM antibody concentrations were determined for each serum in preliminary experiments. Serum dilutions with measured OD450 nm values around 1.0 were chosen for the assay, to be able to compare the measured IC50 values (half maximal inhibitory concentration) which are antibody concentration dependent. Serum dilutions: DP 1:2′500, KH 1:3,000, SJ 1:7,500, MK 1:23,000.
IC50 values of compound 1 were determined for all sera. Those of compound 2 were determined for serum MK with the highest antibody affinity for 1 and for serum SJ with the lowest antibody affinity for 1. The assay was repeated four times. From the received binding curves for each serum, the three best fitted were chosen and normalized for IC50 calculation. For curve generation of compound 2 an artificially high concentration point at 500 mM with 0% antibody binding was added because even at the highest concentration of 2 (50 mM) the inhibition of antibody binding was not 100%. The IC50 values for compound 2 are therefore to be considered as approximated values, although they changed only marginally upon addition of the high concentration point. Under the same assay conditions the carbohydrate polymer was tested with the sera KH, MK and SJ. The measurements were repeated at least three times. The three best fitted curves for each serum were chosen for IC50 calculation.
Sera of four patients (three men and one […]) were investigated. They all were tested positive for a monoclonal IgM gammopathy and were diagnosed with anti-MAG neuropathy at the University Hospital of Basel (Basel, Switzerland). Serum anti-MAG antibody titers were determined by an ELISA assay (Bühlmann Laboratories, Schonenbuch, Switzerland). Sera from two patients with a monoclonal IgM gammopathy and negative anti-MAG activity served as control. Use of sera was approved by the ethics committee of the University Hospital of Basel.
An anti-MAG ELISA kit (Bühlmann Laboratories, Schonenbuch, Switzerland) was used for the biological evaluation of compounds 1, 2 and 25. The 96 well plates coated with purified MAG from human brain were washed four times with washing buffer (300 μl/well) before adding the carbohydrate ligands in seven different concentrations (0.05-50 mM for the monomers 1 and 2 and 0.05-5,000 nM for the polymer 25), 25 μl/well. The patient sera containing anti-MAG IgM antibodies were added in the appropriate dilutions, 25 μl/well. […]

The IC50 is the concentration that inhibits the measured activity by half. Lower therefore signals greater potency. In turn, `COc1ccc(OC2OC(CO)C(O)C(OC3OC(C(=O)O)C(O)C(OS(=O)(=O)O)C3O)C2O)cc1` [Compound 1, 4-Methoxyphenyl (Disodium-3-O-Sulfo-β-D-Glucopyranuronate)-(1→3)-β-D-Galacto-Pyranoside] had an IC50 (patient serum DP (dilution 1:2′500), MAG-coated plates) of 536 ± 23.5 µM; a half-maximal inhibitory concentration (IC50) (patient serum KH (dilution 1:3,000), MAG-coated plates) of 614 ± 20.1 µM; an IC50 (patient serum MK (dilution 1:23,000), MAG-coated plates) of 124 ± 9.5 µM; a concentration for half-maximal inhibition (IC50) (patient serum SJ (dilution 1:7,500), MAG-coated plates) of 793 ± 24 µM.
For `COc1ccc(OC2OC(CO)C(O)C(OC3OC(C(=O)O)C(O)C(O)C3O)C2O)cc1` [Compound 2, 4-Methoxyphenyl (Sodium β-D-Glucopyranuronate)-(1→3)-β-D-Galactopyranoside], the “inhibition of antibody binding” value (highest concentration, 50 mM) was below 100%. Under “patient serum MK”, the “weaker binding to the unsulfated disaccharide (versus sulfated disaccharide 1)” value is on record as “approximately 230 fold”. Besides, the IC50 stood at 29000 ± 500 µM (patient serum MK, approximated value, artificial point at 500 mM with 0% antibody binding added for curve fit) and 10000 ± 1000 µM (patient serum SJ, approximated value, artificial point at 500 mM with 0% antibody binding added for curve fit). The “lower binding affinity to the unsulfated disaccharide (versus sulfated disaccharide 1)” value (patient serum SJ) is 12.6 fold.
